Values joined by “and” are separate entries in the source; they are usually repeats but may differ in a detail not shown here. Identical values can stand only once.
Columns and labels:
[1] = tested on: heparin-induced bleeding in rat; assay: Tail cut bleeding test in heparinized rat; assay type: in vivo; conditions: for IHT (hemorrhage time), Mean / IHT (hemorrhage time), individual rats: Example 35, betaine 10 mg/kg and/or heparin 5 mg/kg s.c. 1 hour prior to testing
Experimental: This example determined the effect of betaine on hemorrhage time in a heparinized rat. Forty male Wistar rats were purchased from Charles River, France and were acclimated for one week prior to testing. Each animal was weighed prior to testing (weights ranged from 225 to 275 g, mean weight=245 g) and the group of 40 rats was further divided into 4 groups of 10 rats each. One group acted as a control group and each rat in this group received a subcutaneous injection of saline 1 hour prior to testing. The second group received a 10 mg/kg subcutaneous injection of betaine 1 hour prior to testing. The third group received a 5 mg/kg subcutaneous injection of heparin 1 hour prior to testing and the last group received a subcutaneous injection consisting of 5 mg/kg heparin plus 10 mg/kg betaine 1 hour prior to testing. The rats were anesthetized by intramuscular injection of Nesdonal (200 mg/kg). The products were then injected subcutaneously in the abdomen one hour before the tail cut induced bleeding test. For the group receiving the combined heparin/betaine (group 4) injections, the heparin and betaine were injected using different syringes at different sites of administration (left and right sides of the abdomen) in order to avoid any direct reactions between the two substances.
The tail of the anaesthetized rat was dipped for 5 minutes in a water bath at 37° C. in order to induce a dilation of the peripheral vessels. The tail was then removed from the water bath and sectioned at 10-15 mm from the extremity. The chronometer was then started. The IHT is defined as the time, in seconds, between the tail section and the end of the hemorrhage or bleeding. The end of hemorrhage is defined as the moment when the last drop of blood is collected from the tail and when no other drop is observed during 180 seconds. The amount of blood was estimated by visual inspection. […] Betaine has no significant effect on bleeding time and combined use of betaine with heparin almost restored the bleeding time to normal, thereby indicating an antidote-like activity of betaine against heparin.
This example investigated the effect of delayed betaine administration on active heparin-induced bleeding (antidote type administration) in a rat. Twelve male Wistar rats were purchased from Charles River, France and were acclimated for one week prior to testing. Each rat was weighed prior to testing (weights ranged from 245-280 g with a mean of 260 g) and the group of twelve was divided into 3 subgroups. Three rats were in the control group which received two saline injections, one at T0, one at T0+45 minutes. Three rats were in the […] group which received one injection of heparin (5 mg/kg) at T0. Six rats were in the antidote group which received a heparin injection (5 mg/kg) at T0, and a betaine injection (10 mg/kg) at T0+45 minutes. […] However, at the end of the bleeding experiments, blood was sampled by intracardiac puncture on Na-citrate (3.8%, 1:10) and plasmas of the collected blood samples were kept at −20° C. for future biological assays. Chemical products were also identical.
This example investigated the effect of delayed betaine administration in an antidote type administration inhibited the bleeding time and volume of blood loss induced by heparin treatment in a rat. Twenty male Wistar rats were purchased from Charles River, France and were acclimated for one week prior to the tests. Each rat was weighed prior to testing (weights ranged from 240-340 g with a mean weight of 275 g) and divided into 2 groups of 10 animals each. One group received an injection of heparin (5 mg/kg) at T0. The second group received a heparin injection (5 mg/kg) at T0, and a betaine injection (10 mg/kg) at T0+30 minutes. Both groups were subjected to a bleeding test at T0+60 minutes. The testing was performed using the previously described methodology with slight modifications. The tails were sectioned at 5-8 mm from the extremity. […]

coagulation factors = assay: Biological balance (Quick time, ACT, fibrinogen, α2AP, AT III); assay type: in vivo, rat
platelet aggregation = assay: Whole blood platelet aggregation ex vivo (aggregometer); assay type: in vivo, rat; conditions: for Amplitude (platelet aggregation induced ex vivo) / Velocity (platelet aggregation induced ex vivo): 5 mg/kg; for Amplitude (platelet aggregation) / Velocity (platelet aggregation): rat, after laser firings, glycine betaine 5 mg/kg, acetylsalicylic acid 100 mg/kg, heparin 2 mg/kg
Experimental: The aggregation is made in accordance to the methods of Cardinal & Flower. Pharmacol. Method. 1980, and to American Journal of Clinical Pathology, 1989; 92: 676-679, Sureney. J D. Whole Blood aggregometry. After a keeping period of 8 days, the rats are subjected to a fasting for 12 hours. […] The rats are then anaesthetised with sodium Thiopental administered at a dose of 200 mg/Kg and the blood samples are taken by intracardiac puncture on a trisodium citrate solution (1 volume of solution at 3.8% citrate for 9 volumes of blood).

[2] = 5 mg/kg/day, repeated administration on 5 days of treatment
[3] = rat, glycine betaine 5 mg/kg, acetylsalicylic acid 100 mg/kg, heparin 2 mg/kg
[4] = Group I: injected 1 hour before
[5] = Group II: injected 2 hours before
[6] = Group III: injected 3 hours before
[7] = Group IV: injected 4 hours before
[8] = Example 36, heparin 5 mg/kg at T0, betaine 10 mg/kg at T0+45 minutes, bleeding test at T0+75 minutes
[9] = Example 37, heparin 5 mg/kg at T0, betaine 10 mg/kg at T0+30 minutes, test at T0+60 minutes

Compound | IHT (hemorrhage time), Mean [1] | IHT (hemorrhage time), individual rats [1] | ACT (Activated cephaline time) (coagulation factors; [3]) | AT III (Antithrombin III) (coagulation factors; [3]) | Fibrinogen (coagulation factors; [3]) | QT (Quick time) (coagulation factors; [3]) | α2AP (Alpha,2-antiplasmin) (coagulation factors; [3]) | Amplitude (platelet aggregation) (platelet aggregation) | Velocity (platelet aggregation) (platelet aggregation) | also measured
C[N+](C)(C)CC(=O)O [Glycine betaine] | 169.9 s | 166 s and 180 s and 162 s and 173 s and 194 s and 203 s and 159 s and 142 s and 123 s and 197 s | 39.9 ± 1.05 s | 89.5 ± 1.37% | 1.7 ± 0.1 g/L | 16.9 ± 1.05 s | 29.7 ± 0.68% | 0.66 ± 1.15 ohms | 1.66 ± 1.15 ohms/min | Volume of blood loss by visual inspection ([1]; Example 36, antidote group versus heparin group): significantly reduced; ACT (coagulation factors; [2]): 39.3 ± 2.3 s; Fibrinogen (coagulation factors; [2]): 2.2 ± 0.1 g/L; Quick time (coagulation factors; [2]): 19.8 ± 1.2 s; Amplitude (platelet aggregation induced ex vivo) (platelet aggregation; [4]): 11.33 ± 3.08 Ohms; Velocity (platelet aggregation induced ex vivo) (platelet aggregation; [4]): 8.2 ± 0.2 ohm/minute; Amplitude (platelet aggregation induced ex vivo) (platelet aggregation; [5]): 13.2 ± 3.5 Ohms; Velocity (platelet aggregation induced ex vivo) (platelet aggregation; [5]): 9.3 ± 1.8 ohm/minute; Amplitude (platelet aggregation induced ex vivo) (platelet aggregation; [6]): 12.7 ± 4.1 Ohms; Velocity (platelet aggregation induced ex vivo) (platelet aggregation; [6]): 8.7 ± 1.3 ohm/minute; Amplitude (platelet aggregation induced ex vivo) (platelet aggregation; [7]): 13 ± 2.8 Ohms; Velocity (platelet aggregation induced ex vivo) (platelet aggregation; [7]): 8.7 ± 1.15 ohm/minute
Heparin | 690.9 s | 679 s and 767 s and 680 s and 734 s and 702 s and 663 s and 735 s and 567 s | 39.46 ± 1.36 s | 77.66 ± 1.52% | 2.13 ± 0.25 g/L | 29.50 ± 0.52 s | 29.4 ± 1.01% | 4.33 ± 0.57 ohms | 2.66 ± 0.50 ohms/min | Bleeding Time, individual rats [1, 8]: 658 s and 597 s and 533 s; Bleeding time, Mean [1, 8]: 596 s; Bleeding Time, individual rats [1, 9]: 400 s and 345 s and 405 s and 370 s and 290 s and 265 s and 350 s and 300 s and 315 s and 275 s; Bleeding time, Mean [1, 9]: 331.5 s; Volume (blood loss), Mean [1, 9]: 1294 µL; Volume (blood loss), individual rats [1, 9]: 1650 μl and 1300 μl (2×) and 1800 μl and 1380 μl and 1200 μl and 940 μl and 1140 μl and 1130 μl and 1100 μl

From US7608640B2, “Glycine betaine and its use” (priority 2001, dated 2009)
